Series [1] is classed as physicochemical. Particulars: 30% w/w in PVP, initially amorphous, yielded crystals. The procedure:
To set up an aging experiment, the sample was added into an open DSC pan and heated up on a microscope hot-stage (Linkam THMS 600) to Tm+20° C. under vacuum. The application of vacuum removed air bubbles trapped in the viscous melt. The pan was then quenched to room temperature, sealed immediately, and aged in an oven of known temperature.
To verify the solubility of D-mannitol in PVP obtained with the DSC method (Method I), we used two other solubility-indicating methods (FIG. 7). In the first (Method II), D-mannitol was mixed with PVP at a concentration higher than predicted. The mixture was then aged to see whether the supersaturated solution indeed crystallized over time. We tracked three indicators of crystallization: (a) the glass transition temperature Tg of the mixture, which is expected to increase when D-mannitol is removed from its mixture with PVP (FIG. 5); (b) the appearance of new endotherms with aging which correspond to the dissolution of newly crystallized D-mannitol; and (c) new crystals observable by polarized light microscopy. Modulated DSC (MDSC) was used to measure Tg. In the second method (Method III), D-mannitol was mixed with PVP at high enough concentration so that D-mannitol rapidly crystallized. […]
For Method II, D-mannitol was mixed with PVP by cryogenic milling at 30% w/w. […] The mixture was analyzed by DSC at times ranging from a few days to 155 days. […]

Series [2] in a line: DSC dissolution-endpoint method (Method I): solubility of a crystalline substance in a polymer. Conditions: for solubility in PVP: by extrapolation.
Description: In a typical procedure, 0.5-1 g of solute/polymer powder was milled at 10 Hz. Each cycle of milling was 2 min, followed by a 2 min cool-down. The cycle was repeated to achieve a desired milling time (16-60 min).
Standard and modulated differential scanning calorimetry (DSC) was conducted in hermetic aluminium pans using a TA Instruments DSC Q1000. 5-10 mg of the sample was packed into the pans. A pin hole was made in the lid to allow the escape of moisture. Standard DSC was performed at heating rates from 0.1 to 3° C./min. Modulated DSC was used to observe the glass transition of the amorphous phase at a heating rate of 2° C./min with the temperature modulating at ±0.5° C. every 60 second.
To further minimize the effect of slow dissolution on the measurement of equilibrium solubility, we measured Tend at several heating rates (FIG. 3) and obtained the Tend at zero heating rate by extrapolation (FIG. 4).
The larger the difference (Tend−Tg), the lower the viscosity of the solution in which D-mannitol completed its dissolution. […] For such systems, Tend changed rapidly and non-linearly with the heating rate, making the extrapolation to zero heating rate less certain. […] Despite this limitation the method enabled us to get sufficiently close to Tg to estimate the solubility of D-mannitol in PVP at Tg: by extrapolation. […] At 95° C., the saturated solution exists at the glass transition temperature.
As in the case of D-mannitol/PVP, cryomilling was used to prepare drug/polymer mixtures. […] As in the case of the D-mannitol/PVP, cryomilling facilitated the determination of dissolution endpoint.

For the compound `OC[C@@H](O)[C@@H](O)[C@H](O)[C@H](O)CO` [D-mannitol], the “state of the 30% solution in PVP on aging” value in series [1] is “supersaturated”. In addition, the “predicted solubility in PVP (Method I)” value in series [2] (105° C., temperature chosen for the validation tests) is given as 15%. Besides, the “solubility in PVP” value is reported as 15 % w/w in series [2] (PVP K15, […]) and 10 % w/w in series [2] (PVP K15, at 95° C., […]).

The values above are taken from patent publication US9004752B2, “Method for evaluating the solubility of a crystalline substance in a polymer” (Abbvie, Inc., priority 2008, dated 2015).
